Results from BindingDB's records for doi:10.1021/cb900264w (The Weizmann Institute of Science, 2010).

Tests used:
[1] = biological target: T1, Amine oxidase [flavin-containing] B (Rattus norvegicus, UniProt P19643); assay: Enzyme Inhibition Assay; settings: pH 7.4; 37 °C
T1 sequence (P19643 whole entry): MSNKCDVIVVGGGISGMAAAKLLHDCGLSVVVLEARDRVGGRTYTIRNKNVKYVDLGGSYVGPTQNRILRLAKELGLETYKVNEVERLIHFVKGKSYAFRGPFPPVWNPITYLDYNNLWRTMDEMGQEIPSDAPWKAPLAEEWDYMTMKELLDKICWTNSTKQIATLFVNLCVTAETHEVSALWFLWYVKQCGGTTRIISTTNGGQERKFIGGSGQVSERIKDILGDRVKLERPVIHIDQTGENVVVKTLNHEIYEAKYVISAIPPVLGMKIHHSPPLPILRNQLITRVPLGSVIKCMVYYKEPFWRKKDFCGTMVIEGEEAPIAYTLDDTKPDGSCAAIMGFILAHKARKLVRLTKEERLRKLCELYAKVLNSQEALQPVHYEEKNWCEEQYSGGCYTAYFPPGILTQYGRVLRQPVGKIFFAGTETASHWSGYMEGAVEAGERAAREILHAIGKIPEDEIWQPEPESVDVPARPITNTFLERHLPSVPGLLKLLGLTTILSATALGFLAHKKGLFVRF
Text: (§1) Inhibition of MAO activity in rat brain homogenates.

[2] = biological target: T2, Amine oxidase [flavin-containing] A (Rattus norvegicus, UniProt P21396); assay: Enzyme Inhibition Assay; settings: pH 7.4; 37 °C
T2 sequence (P21396 whole entry): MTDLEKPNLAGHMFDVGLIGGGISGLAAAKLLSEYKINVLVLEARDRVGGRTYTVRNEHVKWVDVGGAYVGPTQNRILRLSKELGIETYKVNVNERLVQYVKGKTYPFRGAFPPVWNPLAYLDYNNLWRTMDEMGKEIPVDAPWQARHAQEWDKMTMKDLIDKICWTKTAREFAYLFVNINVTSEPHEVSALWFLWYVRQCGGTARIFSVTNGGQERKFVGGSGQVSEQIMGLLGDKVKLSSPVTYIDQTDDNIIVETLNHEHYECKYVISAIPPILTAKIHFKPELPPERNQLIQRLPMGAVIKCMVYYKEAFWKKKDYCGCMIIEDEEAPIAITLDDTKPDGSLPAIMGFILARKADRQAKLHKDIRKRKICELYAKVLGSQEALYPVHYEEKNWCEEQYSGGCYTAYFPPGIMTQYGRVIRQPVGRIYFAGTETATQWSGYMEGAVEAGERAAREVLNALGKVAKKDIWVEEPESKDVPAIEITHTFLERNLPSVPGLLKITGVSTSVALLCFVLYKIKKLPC
Text: as §1

SMILES	IC50 [1] [nM]	IC50 [2] [nM]
C#CCN(C)Cc1ccc(O)c2ncccc12 [Chelator, M30]	37	–
C#CCN(C)Cc1ccc(OC(=O)N(C)C)c2ncccc12 [Prochelators, 2]	7900	7.7
C#CCN(C)Cc1ccc(OC(=O)N(C)CC)c2ncccc12 [Prochelators, 3]	–	9.6
